Assay [1] has as its target N(G),N(G)-dimethylarginine dimethylaminohydrolase 1 (Homo sapiens, UniProt O94760). Nature of the assay: Inhibition of human recombinant DDAH1.
A short description of assay [2]: Inhibition of recombinant N-glutathione transferase/human DDAH1 fusion protein.

Structures are written as SMILES.

For orientation: IC50 means the midpoint of a concentration-inhibition curve. One may read the Ki as a measure of affinity in units of concentration, obtained from inhibition or displacement.

N(G),N(G)-dimethylarginine dimethylaminohydrolase 1, sequence (O94760 whole entry, the tested form may be a part): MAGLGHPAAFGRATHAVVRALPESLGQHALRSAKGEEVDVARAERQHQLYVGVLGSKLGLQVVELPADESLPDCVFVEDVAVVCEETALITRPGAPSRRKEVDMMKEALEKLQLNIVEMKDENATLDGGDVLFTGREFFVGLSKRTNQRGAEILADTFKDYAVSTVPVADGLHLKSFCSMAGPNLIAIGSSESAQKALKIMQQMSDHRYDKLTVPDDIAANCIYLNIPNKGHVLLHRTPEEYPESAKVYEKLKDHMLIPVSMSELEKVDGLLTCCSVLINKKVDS

As to `N[C@@H](CCS)C(=O)O` [L-HOMOCYSTEINE], in assay [1], the IC50 worked out at 0.64 mM. On to `NCCCC[C@H](N)C(=O)O` [LYSINE], for which the inhibition constant Ki in assay [2] stood at 2.8 mM.

Values taken from ChEMBL document CHEMBL1156520, “Inhibition of human dimethylarginine dimethylaminohydrolase-1 by S-nitroso-L-homocysteine and hydrogen peroxide. Analysis, quantification, and implications for hyperhomocysteinemia” (J Biol Chem, 2007).
